According to the kinase profiling compilation of Christmann-Franck et al. (2016):
Each block holds one molecule with its values, some of them ahead of it.

What was measured:
Experiment in all cases: radiometric filter-binding kinase assay
[1] = molecular target: PRKCZ (human) (UniProt Q05513)
[2] = molecular target: BRSK2 (human) (UniProt Q8IWQ3)
[3] = molecular target: MAP3K5 (human) (UniProt Q99683)
[4] = molecular target: EPHB4 (human) (UniProt P54760)
[5] = molecular target: GSK3B (human) (UniProt P49841)
[6] = molecular target: MAP3K9 (human) (UniProt P80192)
[7] = test system: AKT2 (human), P31751 [S474D]
[8] = molecular target: RPS6KA5 KD1 KD2 (human) (UniProt O75582)
RPS6KA5 KD1 KD2 (human), sequence (O75582 whole entry, looked up): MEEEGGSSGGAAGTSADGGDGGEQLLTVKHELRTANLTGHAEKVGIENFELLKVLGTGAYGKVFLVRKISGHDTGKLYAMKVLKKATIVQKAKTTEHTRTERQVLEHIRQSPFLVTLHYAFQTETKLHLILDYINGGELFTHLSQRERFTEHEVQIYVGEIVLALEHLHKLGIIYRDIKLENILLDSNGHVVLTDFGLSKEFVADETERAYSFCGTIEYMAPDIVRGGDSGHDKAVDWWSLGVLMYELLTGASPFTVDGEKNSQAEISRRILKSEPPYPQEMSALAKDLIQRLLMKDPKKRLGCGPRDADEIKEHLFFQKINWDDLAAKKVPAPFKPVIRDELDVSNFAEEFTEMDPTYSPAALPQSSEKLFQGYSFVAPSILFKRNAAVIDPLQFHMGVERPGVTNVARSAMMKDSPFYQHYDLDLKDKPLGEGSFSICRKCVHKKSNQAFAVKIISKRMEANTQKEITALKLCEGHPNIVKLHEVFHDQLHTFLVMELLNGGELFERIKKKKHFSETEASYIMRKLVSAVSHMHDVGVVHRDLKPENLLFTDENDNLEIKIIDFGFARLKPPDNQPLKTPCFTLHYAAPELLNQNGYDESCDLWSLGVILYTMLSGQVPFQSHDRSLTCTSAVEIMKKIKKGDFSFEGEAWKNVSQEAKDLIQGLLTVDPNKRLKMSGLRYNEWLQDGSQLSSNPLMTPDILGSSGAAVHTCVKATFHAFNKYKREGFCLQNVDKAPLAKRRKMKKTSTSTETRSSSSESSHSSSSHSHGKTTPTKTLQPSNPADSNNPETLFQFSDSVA

[9] = molecular target: CSK (human) (UniProt P41240)
[10] = molecular target: HIPK3 (human) (UniProt Q9H422)
[11] = molecular target: EPHB1 (human) (UniProt P54762)
[12] = molecular target: HIPK2 (human) (UniProt Q9H2X6)
[13] = test system: LCK (mouse); settings: accession and sequence are those of the human protein
[14] = molecular target: MAPK13 (human) (UniProt O15264)
[15] = molecular target: CLK2 (human) (UniProt P49760)
CLK2 (human), sequence (P49760 whole entry, looked up): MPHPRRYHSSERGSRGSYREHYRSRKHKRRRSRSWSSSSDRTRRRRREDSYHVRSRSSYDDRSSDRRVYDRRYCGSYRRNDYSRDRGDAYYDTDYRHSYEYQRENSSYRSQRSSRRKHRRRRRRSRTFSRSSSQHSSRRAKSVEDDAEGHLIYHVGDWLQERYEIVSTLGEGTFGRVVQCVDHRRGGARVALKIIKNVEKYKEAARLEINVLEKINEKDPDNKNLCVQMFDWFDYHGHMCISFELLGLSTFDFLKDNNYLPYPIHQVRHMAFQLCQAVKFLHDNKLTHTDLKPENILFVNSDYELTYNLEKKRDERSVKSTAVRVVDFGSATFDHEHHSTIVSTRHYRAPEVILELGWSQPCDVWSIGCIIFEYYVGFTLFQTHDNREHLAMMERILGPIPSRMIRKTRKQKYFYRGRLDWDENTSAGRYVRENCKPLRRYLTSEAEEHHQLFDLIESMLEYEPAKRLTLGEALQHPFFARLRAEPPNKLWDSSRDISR

[16] = molecular target: MAPK1 (human) (UniProt P28482)
[17] = molecular target: PAK6 (human) (UniProt Q9NQU5)
[18] = molecular target: DAPK1 (human) (UniProt P53355)
[19] = molecular target: EPHB3 (human) (UniProt P54753)
[20] = molecular target: YES1 (human) (UniProt P07947)
YES1 (human), sequence (P07947 whole entry, looked up): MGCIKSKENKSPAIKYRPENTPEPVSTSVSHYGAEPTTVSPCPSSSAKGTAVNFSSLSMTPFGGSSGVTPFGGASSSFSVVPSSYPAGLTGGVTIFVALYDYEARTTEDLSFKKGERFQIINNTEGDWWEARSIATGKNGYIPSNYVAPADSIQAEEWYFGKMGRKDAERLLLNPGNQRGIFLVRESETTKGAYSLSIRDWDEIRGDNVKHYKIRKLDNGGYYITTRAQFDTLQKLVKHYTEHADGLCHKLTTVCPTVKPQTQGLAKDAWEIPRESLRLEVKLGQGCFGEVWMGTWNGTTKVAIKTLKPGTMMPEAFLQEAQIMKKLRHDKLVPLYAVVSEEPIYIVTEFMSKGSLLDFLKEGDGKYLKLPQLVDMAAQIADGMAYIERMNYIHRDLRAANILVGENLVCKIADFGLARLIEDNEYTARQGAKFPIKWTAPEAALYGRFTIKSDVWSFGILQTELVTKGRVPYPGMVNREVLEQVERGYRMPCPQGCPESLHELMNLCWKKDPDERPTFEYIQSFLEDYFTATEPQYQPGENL

[21] = molecular target: IGF1R (human) (UniProt P08069)
[22] = molecular target: PLK1 (human) (UniProt P53350)
[23] = molecular target: MAP3K7 TAB1 (human) (UniProt Q15750+O43318)
[24] = molecular target: SYK (human) (UniProt P43405)
[25] = test system: PRKAA1 or PRKAA2 (rat); settings: accession and sequence are those of the human protein
[26] = molecular target: PAK7 (human) (UniProt Q9P286)
[27] = molecular target: PKN2 (human) (UniProt Q16513)
PKN2 (human), sequence (Q16513 whole entry, looked up): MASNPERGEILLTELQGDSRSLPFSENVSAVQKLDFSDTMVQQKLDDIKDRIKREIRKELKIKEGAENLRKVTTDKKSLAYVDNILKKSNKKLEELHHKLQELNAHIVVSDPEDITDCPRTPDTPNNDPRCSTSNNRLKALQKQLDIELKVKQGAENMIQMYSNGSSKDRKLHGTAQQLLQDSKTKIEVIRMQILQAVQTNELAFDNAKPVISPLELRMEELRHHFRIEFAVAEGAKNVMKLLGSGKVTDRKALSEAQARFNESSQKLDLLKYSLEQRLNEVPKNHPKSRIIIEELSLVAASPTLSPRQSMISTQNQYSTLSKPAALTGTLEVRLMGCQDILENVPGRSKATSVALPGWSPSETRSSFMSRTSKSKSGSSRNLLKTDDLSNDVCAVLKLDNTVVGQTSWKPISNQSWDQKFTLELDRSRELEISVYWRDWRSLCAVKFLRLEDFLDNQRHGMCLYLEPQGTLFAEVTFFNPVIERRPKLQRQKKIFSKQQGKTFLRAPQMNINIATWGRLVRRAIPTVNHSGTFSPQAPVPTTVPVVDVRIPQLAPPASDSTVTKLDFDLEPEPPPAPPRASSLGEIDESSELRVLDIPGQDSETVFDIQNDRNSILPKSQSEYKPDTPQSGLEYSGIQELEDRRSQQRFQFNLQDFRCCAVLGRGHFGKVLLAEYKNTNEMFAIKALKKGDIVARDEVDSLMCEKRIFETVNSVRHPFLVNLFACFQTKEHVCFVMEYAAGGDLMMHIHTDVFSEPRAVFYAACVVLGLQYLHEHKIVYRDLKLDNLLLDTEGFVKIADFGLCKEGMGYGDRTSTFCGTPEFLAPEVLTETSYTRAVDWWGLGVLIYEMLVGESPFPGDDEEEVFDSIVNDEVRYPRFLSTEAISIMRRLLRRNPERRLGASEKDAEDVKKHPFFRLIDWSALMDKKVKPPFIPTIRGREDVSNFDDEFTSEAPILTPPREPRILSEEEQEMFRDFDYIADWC

[28] = test system: ROCK2 (rat); settings: accession and sequence are those of the human protein
[29] = molecular target: EPHA4 (human) (UniProt P54764)
EPHA4 (human), sequence (P54764 whole entry, looked up): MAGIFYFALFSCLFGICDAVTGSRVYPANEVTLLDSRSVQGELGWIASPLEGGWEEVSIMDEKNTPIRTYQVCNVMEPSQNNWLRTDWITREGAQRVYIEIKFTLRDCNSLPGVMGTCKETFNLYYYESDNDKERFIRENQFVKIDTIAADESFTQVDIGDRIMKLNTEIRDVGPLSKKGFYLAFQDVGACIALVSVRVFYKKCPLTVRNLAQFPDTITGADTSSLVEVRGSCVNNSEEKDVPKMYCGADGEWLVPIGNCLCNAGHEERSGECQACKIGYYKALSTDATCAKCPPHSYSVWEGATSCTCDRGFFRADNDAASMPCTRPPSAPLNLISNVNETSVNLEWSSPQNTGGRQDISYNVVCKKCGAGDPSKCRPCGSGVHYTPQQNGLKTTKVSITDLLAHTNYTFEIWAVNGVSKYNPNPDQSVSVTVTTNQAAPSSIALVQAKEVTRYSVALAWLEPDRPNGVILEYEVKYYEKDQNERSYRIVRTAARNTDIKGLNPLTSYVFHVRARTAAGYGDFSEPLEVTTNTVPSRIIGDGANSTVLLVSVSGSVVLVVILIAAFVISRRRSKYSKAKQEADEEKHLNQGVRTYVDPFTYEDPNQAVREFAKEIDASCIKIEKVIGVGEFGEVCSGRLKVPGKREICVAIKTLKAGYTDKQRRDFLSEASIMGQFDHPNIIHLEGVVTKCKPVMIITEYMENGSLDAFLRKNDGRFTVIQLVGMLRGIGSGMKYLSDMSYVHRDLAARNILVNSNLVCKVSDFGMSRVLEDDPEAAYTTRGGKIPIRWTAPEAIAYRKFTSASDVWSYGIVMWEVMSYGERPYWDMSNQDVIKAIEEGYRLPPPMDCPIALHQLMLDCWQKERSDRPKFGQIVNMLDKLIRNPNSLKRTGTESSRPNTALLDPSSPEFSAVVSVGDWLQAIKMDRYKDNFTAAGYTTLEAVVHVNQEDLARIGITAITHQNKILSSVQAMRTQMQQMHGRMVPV

[30] = molecular target: SRC (human) (UniProt P12931)
SRC (human), sequence (P12931 whole entry, looked up): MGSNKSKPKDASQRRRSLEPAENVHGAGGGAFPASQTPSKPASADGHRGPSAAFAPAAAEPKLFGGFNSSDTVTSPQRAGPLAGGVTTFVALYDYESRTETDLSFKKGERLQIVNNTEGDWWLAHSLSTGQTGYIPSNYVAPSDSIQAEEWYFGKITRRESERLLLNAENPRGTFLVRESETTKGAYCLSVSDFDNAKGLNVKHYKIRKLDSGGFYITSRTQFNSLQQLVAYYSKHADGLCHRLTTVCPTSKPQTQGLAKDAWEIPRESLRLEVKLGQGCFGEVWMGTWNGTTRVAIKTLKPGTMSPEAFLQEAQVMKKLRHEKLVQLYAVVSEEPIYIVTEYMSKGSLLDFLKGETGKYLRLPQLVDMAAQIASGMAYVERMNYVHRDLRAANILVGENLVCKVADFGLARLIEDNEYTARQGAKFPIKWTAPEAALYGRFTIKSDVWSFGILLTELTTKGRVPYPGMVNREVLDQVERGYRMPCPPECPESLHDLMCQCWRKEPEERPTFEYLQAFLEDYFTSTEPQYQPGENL

[31] = molecular target: CAMKK2 (human) (UniProt Q96RR4)
[32] = molecular target: MAP3K1 (human) (UniProt Q13233)
[33] = molecular target: HIPK1 (human) (UniProt Q86Z02)
[34] = molecular target: MARK4 (human) (UniProt Q96L34)
[35] = molecular target: INSR (human) (UniProt P06213)
[36] = molecular target: MAPK11 (human) (UniProt Q15759)

PRKCZ (human), sequence (Q05513 whole entry, looked up): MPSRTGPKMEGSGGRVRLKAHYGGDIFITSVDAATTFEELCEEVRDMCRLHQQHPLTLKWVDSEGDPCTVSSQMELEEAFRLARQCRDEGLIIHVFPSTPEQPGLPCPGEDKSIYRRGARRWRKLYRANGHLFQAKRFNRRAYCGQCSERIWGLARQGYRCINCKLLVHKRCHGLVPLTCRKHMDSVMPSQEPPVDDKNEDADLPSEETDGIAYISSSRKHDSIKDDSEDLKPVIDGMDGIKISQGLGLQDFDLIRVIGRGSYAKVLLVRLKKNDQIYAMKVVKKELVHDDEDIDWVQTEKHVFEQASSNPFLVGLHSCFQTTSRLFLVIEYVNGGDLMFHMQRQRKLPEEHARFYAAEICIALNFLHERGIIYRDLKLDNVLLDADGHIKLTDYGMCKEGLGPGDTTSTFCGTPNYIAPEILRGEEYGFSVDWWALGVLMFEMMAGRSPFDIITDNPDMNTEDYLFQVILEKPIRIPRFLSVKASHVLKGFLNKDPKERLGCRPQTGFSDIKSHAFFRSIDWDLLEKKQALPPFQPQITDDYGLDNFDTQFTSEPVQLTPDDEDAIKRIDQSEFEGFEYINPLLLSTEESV

residual activity ([1]; compound 1.0 µM): 89%
residual activity ([1]; compound 10.0 µM): 91%
residual activity ([2]; compound 1.0 µM): 108%
residual activity ([2]; compound 10.0 µM): 105%
residual activity ([3]; compound 1.0 µM): 102%
residual activity ([3]; compound 10.0 µM): 112%
residual activity ([4]; compound 1.0 µM): 98%
residual activity ([4]; compound 10.0 µM): 86%
residual activity ([5]; compound 1.0 µM): 89%
residual activity ([5]; compound 10.0 µM): 89%
residual activity ([6]; compound 1.0 µM): 84%
residual activity ([6]; compound 10.0 µM): 85%
residual activity ([7]; compound 1.0 µM): 97%
residual activity ([7]; compound 10.0 µM): 90%
residual activity ([8]; compound 1.0 µM): 98%
residual activity ([8]; compound 10.0 µM): 96%
residual activity ([9]; compound 1.0 µM): 89%
residual activity ([9]; compound 10.0 µM): 88%
residual activity ([10]; compound 1.0 µM): 90%
residual activity ([10]; compound 10.0 µM): 101%
residual activity ([11]; compound 1.0 µM): 107%
residual activity ([11]; compound 10.0 µM): 92%
residual activity ([12]; compound 1.0 µM): 102%
residual activity ([12]; compound 10.0 µM): 106%
residual activity ([13]; compound 1.0 µM): 93%
residual activity ([13]; compound 10.0 µM): 104%
residual activity ([14]; compound 1.0 µM): 84%
residual activity ([14]; compound 10.0 µM): 97%
residual activity ([15]; compound 1.0 µM): 94%
residual activity ([15]; compound 10.0 µM): 91%
residual activity ([16]; compound 1.0 µM): 83%
residual activity ([16]; compound 10.0 µM): 79%
residual activity ([17]; compound 10.0 µM): 103%
residual activity ([18]; compound 1.0 µM): 97%
residual activity ([18]; compound 10.0 µM): 98%
residual activity ([19]; compound 1.0 µM): 113%
residual activity ([19]; compound 10.0 µM): 82%
residual activity ([20]; compound 1.0 µM): 76%
residual activity ([20]; compound 10.0 µM): 79%
residual activity ([21]; compound 1.0 µM): 76%
residual activity ([21]; compound 10.0 µM): 98%
residual activity ([22]; compound 1.0 µM): 97%
residual activity ([22]; compound 10.0 µM): 93%
residual activity ([23]; compound 1.0 µM): 91%
residual activity ([23]; compound 10.0 µM): 92%
residual activity ([24]; compound 10.0 µM): 77%
residual activity ([25]; compound 1.0 µM): 111%
residual activity ([25]; compound 10.0 µM): 120%
residual activity ([26]; compound 1.0 µM): 102%
residual activity ([26]; compound 10.0 µM): 86%
residual activity ([27]; compound 1.0 µM): 70%
residual activity ([27]; compound 10.0 µM): 79%
residual activity ([28]; compound 1.0 µM): 102%
residual activity ([28]; compound 10.0 µM): 103%
residual activity ([29]; compound 1.0 µM): 97%
residual activity ([29]; compound 10.0 µM): 100%
residual activity ([30]; compound 1.0 µM): 124%
residual activity ([30]; compound 10.0 µM): 72%
residual activity ([31]; compound 1.0 µM): 108%
residual activity ([31]; compound 10.0 µM): 103%
residual activity ([32]; compound 1.0 µM): 88%
residual activity ([32]; compound 10.0 µM): 93%
residual activity ([33]; compound 1.0 µM): 96%
residual activity ([33]; compound 10.0 µM): 85%
residual activity ([34]; compound 1.0 µM): 119%
residual activity ([34]; compound 10.0 µM): 108%
Structure (SMILES): O=C(NOCC(O)CO)c1ccc(F)c(F)c1Nc1ccc(I)cc1Cl (stereo not drawn)

residual activity ([1]; compound 1.0 µM): 109%
residual activity ([1]; compound 10.0 µM): 97%
residual activity ([2]; compound 1.0 µM): 106%
residual activity ([2]; compound 10.0 µM): 96%
residual activity ([3]; compound 10.0 µM): 99%
residual activity ([4]; compound 1.0 µM): 112%
residual activity ([4]; compound 10.0 µM): 120%
residual activity ([5]; compound 1.0 µM): 102%
residual activity ([5]; compound 10.0 µM): 99%
residual activity ([6]; compound 1.0 µM): 95%
residual activity ([6]; compound 10.0 µM): 89%
residual activity ([7]; compound 1.0 µM): 99%
residual activity ([7]; compound 10.0 µM): 91%
residual activity ([8]; compound 1.0 µM): 98%
residual activity ([8]; compound 10.0 µM): 95%
residual activity ([9]; compound 1.0 µM): 98%
residual activity ([9]; compound 10.0 µM): 87%
residual activity ([10]; compound 1.0 µM): 100%
residual activity ([10]; compound 10.0 µM): 96%
residual activity ([11]; compound 10.0 µM): 104%
residual activity ([12]; compound 1.0 µM): 122%
residual activity ([12]; compound 10.0 µM): 106%
residual activity ([13]; compound 1.0 µM): 96%
residual activity ([13]; compound 10.0 µM): 102%
residual activity ([14]; compound 1.0 µM): 97%
residual activity ([14]; compound 10.0 µM): 91%
residual activity ([15]; compound 1.0 µM): 120%
residual activity ([15]; compound 10.0 µM): 112%
residual activity ([16]; compound 1.0 µM): 95%
residual activity ([16]; compound 10.0 µM): 97%
residual activity ([17]; compound 1.0 µM): 106%
residual activity ([17]; compound 10.0 µM): 96%
residual activity ([35]; compound 1.0 µM): 110%
residual activity ([35]; compound 10.0 µM): 103%
residual activity ([18]; compound 1.0 µM): 112%
residual activity ([18]; compound 10.0 µM): 100%
residual activity ([19]; compound 1.0 µM): 96%
residual activity ([19]; compound 10.0 µM): 112%
residual activity ([20]; compound 1.0 µM): 118%
residual activity ([20]; compound 10.0 µM): 109%
residual activity ([21]; compound 1.0 µM): 105%
residual activity ([21]; compound 10.0 µM): 102%
residual activity ([22]; compound 1.0 µM): 96%
residual activity ([22]; compound 10.0 µM): 82%
residual activity ([24]; compound 1.0 µM): 99%
residual activity ([24]; compound 10.0 µM): 103%
residual activity ([25]; compound 1.0 µM): 99%
residual activity ([25]; compound 10.0 µM): 103%
residual activity ([26]; compound 1.0 µM): 88%
residual activity ([26]; compound 10.0 µM): 96%
residual activity ([27]; compound 1.0 µM): 121%
residual activity ([27]; compound 10.0 µM): 91%
residual activity ([28]; compound 1.0 µM): 94%
residual activity ([28]; compound 10.0 µM): 84%
residual activity ([29]; compound 1.0 µM): 106%
residual activity ([29]; compound 10.0 µM): 99%
residual activity ([30]; compound 1.0 µM): 123%
residual activity ([30]; compound 10.0 µM): 102%
residual activity ([36]; compound 1.0 µM): 120%
residual activity ([36]; compound 10.0 µM): 111%
residual activity ([31]; compound 1.0 µM): 97%
residual activity ([31]; compound 10.0 µM): 108%
residual activity ([32]; compound 1.0 µM): 106%
residual activity ([32]; compound 10.0 µM): 103%
residual activity ([33]; compound 1.0 µM): 118%
residual activity ([33]; compound 10.0 µM): 103%
residual activity ([34]; compound 10.0 µM): 74%
Structure (SMILES): Cc1ccc(=O)n(-c2ccccc2)c1
